Values after ≈ are worked out from the molar mass of the structure shown.
Experiments:
Escherichia coli [1] = assay: Antimicrobial activity against Escherichia coli JW55031 harboring deltatolC mutant by broth liquid microdilution method; assay type: functional
Staphylococcus aureus = assay: microbe, parasite or virus in culture; settings: NRS384
Description: Antimicrobial activity against methicillin-resistant Staphylococcus aureus NRS384 by broth liquid microdilution method

Escherichia coli [2] = assay: Antimicrobial activity against Escherichia coli BW25113 by broth liquid microdilution method; assay type: functional

SMILES | MIC (Escherichia coli [1]) [µg/mL] | MIC (Staphylococcus aureus) [µg/mL] | MIC (Escherichia coli [2]) [µg/mL]
C/C(=N\NC(=N)N)c1sc(-c2ccc(OCCCN3CCN(C)CC3)cc2)nc1C | > 64 | > 64 | > 64
C/C(=N\NC(=N)N)c1sc(-c2ccc(C#CCCN3CCCC3)cc2)nc1C | > 64 | 16 (≈ 40.6 µM) | > 64
C/C(=N\NC(=N)N)c1sc(-c2ccc(OCCCCN3CCSCC3)cc2)nc1C | > 64 | > 64 | > 64
C/C(=N\NC(=N)N)c1sc(-c2ccc(C#CCCN3CCCCC3)cc2)nc1C | 32 (≈ 78.3 µM) | 8 (≈ 19.6 µM) | > 64
C/C(=N\NC(=N)N)c1sc(-c2ccc(C#CCCN3CCOCC3)cc2)nc1C | 64 (≈ 156 µM) | 32 (≈ 77.9 µM) | > 64
C/C(=N\NC(=N)N)c1sc(-c2ccc(OCCCCCN3CCC3)cc2)nc1C | 64 (≈ 154 µM) | 32 (≈ 77.2 µM) | > 64
C/C(=N\NC(=N)N)c1sc(-c2ccc(OCCCCCN3CCCCCC3)cc2)nc1C | > 64 | > 64 | > 64
C/C(=N\NC(=N)N)c1sc(-c2ccc(OCCCCCn3ccnc3)cc2)nc1C | > 64 | > 64 | > 64
C/C(=N\NC(=N)N)c1sc(-c2ccc(OCCCCCN3CCCC3)cc2)nc1C | > 64 | > 64 | > 64
C/C(=N\NC(=N)N)c1sc(-c2ccc(OCCCCN3CCCC3)cc2)nc1C | > 64 | > 64 | > 64
C/C(=N\NC(=N)N)c1sc(-c2ccc(C#CCCN3CCCC(C)C3)cc2)nc1C (configuration not stated) | 64 (≈ 151 µM) | 8 (≈ 18.9 µM) | > 64
C/C(=N\NC(=N)N)c1sc(-c2ccc(OCCCCCN3CCCCC3C)cc2)nc1C (configuration not stated) | 32 (≈ 70.1 µM) | 32 (≈ 70.1 µM) | > 64
C/C(=N\NC(=N)N)c1sc(-c2ccc(OCCCCCN3CCC(C)CC3)cc2)nc1C | 64 (≈ 140 µM) | 32 (≈ 70.1 µM) | > 64
C/C(=N\NC(=N)N)c1sc(-c2ccc(OCCCCn3ccnc3)cc2)nc1C | 32 (≈ 77.8 µM) | 16 (≈ 38.9 µM) | > 64
C/C(=N\NC(=N)N)c1sc(-c2ccc(OCCCN3CCCCC3)cc2)nc1C | 64 (≈ 154 µM) | 32 (≈ 77.2 µM) | > 64
C/C(=N\NC(=N)N)c1sc(-c2ccc(OCCCN3CCOCC3)cc2)nc1C | > 64 | 64 (≈ 154 µM) | > 64
C/C(=N\NC(=N)N)c1sc(-c2ccc(C#CCCN3CCCCCC3)cc2)nc1C | 64 (≈ 151 µM) | 8 (≈ 18.9 µM) | > 64
C/C(=N\NC(=N)N)c1sc(-c2ccc(OCCCCCN3CCOCC3)cc2)nc1C | 32 (≈ 72 µM) | 32 (≈ 72 µM) | > 64
C/C(=N\NC(=N)N)c1sc(-c2ccc(OCCCCN3CCC3)cc2)nc1C | 16 (≈ 39.9 µM) | 8 (≈ 20 µM) | > 64
C/C(=N\NC(=N)N)c1sc(-c2ccc(OCCCN3CCCC3)cc2)nc1C | 32 (≈ 79.9 µM) | 16 (≈ 39.9 µM) | > 64
C/C(=N\NC(=N)N)c1sc(-c2ccc(C#CCCN3CCC(C)CC3)cc2)nc1C | > 64 | 16 (≈ 37.9 µM) | > 64
C/C(=N\NC(=N)N)c1sc(-c2ccc(OCCCCCN3CCC4CCCCC4C3)cc2)nc1C (configuration not stated) | > 64 | > 64 | > 64
C/C(=N\NC(=N)N)c1sc(-c2ccc(OCCCN3CCC3)cc2)nc1C | 64 (≈ 166 µM) | 8 (≈ 20.7 µM) | > 64
C/C(=N\NC(=N)N)c1sc(-c2ccc(OCCCCN3CCCCC3)cc2)nc1C | > 64 | > 64 | > 64
C/C(=N\NC(=N)N)c1sc(-c2ccc(C#CCCN3CCCCC3C)cc2)nc1C (configuration not stated) | 32 (≈ 75.7 µM) | 16 (≈ 37.9 µM) | > 64

SMILES | MIC (Escherichia coli [1]) [µg/mL] | MIC (Staphylococcus aureus) [µg/mL] | MIC (Escherichia coli [2]) [µg/mL]
C/C(=N\NC(=N)N)c1sc(-c2ccc(C#CCCN3CCN(C)CC3)cc2)nc1C | 32 (≈ 75.5 µM) | 16 (≈ 37.8 µM) | > 64
C/C(=N\NC(=N)N)c1sc(-c2ccc(OCCCN3CCSCC3)cc2)nc1C | 64 (≈ 148 µM) | 32 (≈ 74 µM) | > 64
C/C(=N\NC(=N)N)c1sc(-c2ccc(C#CCCN3CCSCC3)cc2)nc1C | 16 (≈ 37.5 µM) | 32 (≈ 75 µM) | > 64
C/C(=N\NC(=N)N)c1sc(-c2ccc(OCCCN3CCSC3)cc2)nc1C | 32 (≈ 76.4 µM) | 16 (≈ 38.2 µM) | > 64
C/C(=N\NC(=N)N)c1sc(-c2ccc(OCCCN3CCC(C)CC3)cc2)nc1C | > 64 | > 64 | > 64
C/C(=N\NC(=N)N)c1sc(-c2ccc(OCCCCN3CCC(C)CC3)cc2)nc1C | 32 (≈ 72.3 µM) | 32 (≈ 72.3 µM) | > 64
C/C(=N\NC(=N)N)c1sc(-c2ccc(OCCCCN3CCOCC3)cc2)nc1C | > 64 | > 64 | > 64
C/C(=N\NC(=N)N)c1sc(-c2ccc(OCCCCCN3CCN(C)CC3)cc2)nc1C | > 64 | > 64 | > 64
C/C(=N\NC(=N)N)c1sc(-c2ccc(OCCCN3CCCCCC3)cc2)nc1C | > 64 | 64 (≈ 149 µM) | > 64
C/C(=N\NC(=N)N)c1sc(-c2ccc(OCCCCCN3CCCCC3)cc2)nc1C | 16 (≈ 36.1 µM) | 16 (≈ 36.1 µM) | > 64
C/C(=N\NC(=N)N)c1sc(-c2ccc(OCCCCCN3CCSC3)cc2)nc1C | > 64 | > 64 | > 64
C/C(=N\NC(=N)N)c1sc(-c2ccc(OCCCCN3CCN(C)CC3)cc2)nc1C | 32 (≈ 72.1 µM) | 16 (≈ 36.1 µM) | > 64
C/C(=N\NC(=N)N)c1sc(-c2ccc(OCCCCN3CCSC3)cc2)nc1C | > 64 | > 64 | > 64
C/C(=N\NC(=N)N)c1sc(-c2ccc(OCCCCN3CCCC(C)C3)cc2)nc1C (configuration not stated) | > 64 | > 64 | > 64
C/C(=N\NC(=N)N)c1sc(-c2ccc(OCCCCN3CCCCC3C)cc2)nc1C (configuration not stated) | > 64 | > 64 | > 64
C/C(=N\NC(=N)N)c1sc(-c2ccc(C#CCCN3CCC4CCCCC4C3)cc2)nc1C (configuration not stated) | > 64 | > 64 | > 64
C/C(=N\NC(=N)N)c1sc(-c2ccc(OCCCCN3CCC4CCCCC4C3)cc2)nc1C (configuration not stated) | > 64 | > 64 | > 64
C/C(=N\NC(=N)N)c1sc(-c2ccc(OCCCCCN3CCCC(C)C3)cc2)nc1C (configuration not stated) | 64 (≈ 140 µM) | 32 (≈ 70.1 µM) | > 64
C/C(=N\NC(=N)N)c1sc(-c2ccc(OCCCCN3CCCCCC3)cc2)nc1C | > 64 | > 64 | > 64
C/C(=N\NC(=N)N)c1sc(-c2ccc(OCCCn3ccnc3)cc2)nc1C | > 64 | 32 (≈ 80.5 µM) | > 64
C/C(=N\NC(=N)N)c1sc(-c2ccc(OCCCN3CCCC(C)C3)cc2)nc1C (configuration not stated) | > 64 | 64 (≈ 149 µM) | > 64
C/C(=N\NC(=N)N)c1sc(-c2ccc(OCCCCCN3CCSCC3)cc2)nc1C | > 64 | > 64 | > 64
C/C(=N\NC(=N)N)c1sc(-c2ccc(OCCCN3CCC4CCCCC4C3)cc2)nc1C (configuration not stated) | > 64 | 64 (≈ 137 µM) | > 64
C/C(=N\NC(=N)N)c1sc(-c2ccc(OCCCN3CCCCC3C)cc2)nc1C (configuration not stated) | > 64 | 64 (≈ 149 µM) | > 64
